ChEMBL document CHEMBL4043173, “Aminosquaraines as potential photodynamic agents: Synthesis and evaluation of in vitro cytotoxicity” (Bioorg Med Chem Lett, 2017)

Experiments:
[1] = tested on: NCI-H460; assay: Photocytotoxicity against human NCI-H460 cells assessed as growth inhibition preincubated for 24 hrs followed by irradiation with light at 23 to 24 uW/cm'2 for 30 mins measured after 24 hrs by SRB assay; type: functional; conditions: NCI-H460, light or radiation study
[2] = Dark toxicity against human MCF7 cells assessed as growth inhibition after 24 hrs by SRB assay; type: cell-based
[3] = tested on: MCF7; assay: Photocytotoxicity against human MCF7 cells assessed as growth inhibition preincubated for 24 hrs followed by irradiation with light at 23 to 24 uW/cm'2 for 30 mins measured after 24 hrs by SRB assay; type: functional; conditions: MCF7, light or radiation study
[4] = Dark toxicity against human NCI-H460 cells assessed as growth inhibition after 24 hrs by SRB assay; type: cell-based
[5] = tested on: HepG2; assay: Photocytotoxicity against human HepG2 cells assessed as growth inhibition preincubated for 24 hrs followed by irradiation with light at 23 to 24 uW/cm'2 for 30 mins measured after 24 hrs by SRB assay; type: functional; conditions: HepG2, light or radiation study
[6] = Dark toxicity against human HepG2 cells assessed as growth inhibition after 24 hrs by SRB assay; type: cell-based
[7] = tested on: HeLa; assay: Photocytotoxicity against human HeLa cells assessed as growth inhibition preincubated for 24 hrs followed by irradiation with light at 23 to 24 uW/cm'2 for 30 mins measured after 24 hrs by SRB assay; type: functional; conditions: light or radiation study
[8] = Dark toxicity against human HeLa cells assessed as growth inhibition after 24 hrs by SRB assay; type: cell-based
[9] = Dark toxicity against human MCF7 cells assessed as growth inhibition at 0.1 uM after 24 hrs by SRB assay relative to control; type: cell-based; conditions: read-out: GI
[10] = Dark toxicity against human NCI-H460 cells assessed as growth inhibition at 0.1 uM after 24 hrs by SRB assay relative to control; type: cell-based; conditions: read-out: GI
[11] = Dark toxicity against human HepG2 cells assessed as growth inhibition at 0.1 uM after 24 hrs by SRB assay relative to control; type: cell-based; conditions: read-out: GI
[12] = Dark toxicity against human HeLa cells assessed as growth inhibition at 0.1 uM after 24 hrs by SRB assay relative to control; type: cell-based; conditions: read-out: GI
[13] = Dark toxicity against porcine PLP2 cells assessed as growth inhibition after 24 hrs by SRB assay; conditions: Sus scrofa
[14] = Dark toxicity against porcine PLP2 cells assessed as growth inhibition at 0.1 uM after 24 hrs by SRB assay relative to control; conditions: Sus scrofa, read-out: GI
[15] = Photocytotoxicity against porcine PLP2 cells assessed as growth inhibition preincubated for 24 hrs followed by irradiation with light at 23 to 24 uW/cm'2 for 30 mins measured after 24 hrs by SRB assay; conditions: Sus scrofa

Q: Which GI50 [1] does the source give for `CCN1/C(=C/C2=C(N(C)CCO)C(=C/c3sc4ccccc4[n+]3CC)/C2=O)Sc2ccccc21` here?
A: 455 nM

Q: What about the GI50 at 24 h [2] of the same compound?
A: 0.737 µM

Q: And the GI50 [3]?
A: 239 nM

Q: And the GI50 at 24 h [4]?
A: 767 nM

Q: And the GI50 [5]?
A: 271 nM

Q: And the GI50 at 24 h [6]?
A: 7.54 µM

Q: What about the GI50 [7] of the same compound?
A: 273 nM

Q: And the GI50 at 24 h [8]?
A: 2640 nM

Q: And the inhibition at 24 h, 0.1 µM [9]?
A: < 20%

Q: What about the inhibition at 24 h, 0.1 µM [10] of the same compound?
A: < 20%

Q: What about the inhibition at 24 h, 0.1 µM [11] of the same compound?
A: < 20%

Q: What about the inhibition at 24 h, 0.1 µM [12] of the same compound?
A: < 20%

Q: What about the GI50 at 24 h [13] of the same compound?
A: 717 nM

Q: What about the inhibition at 24 h, 0.1 µM [14] of the same compound?
A: < 20%

Q: What about the GI50 at 24 h [15] of the same compound?
A: 471 nM

Q: With `CCN1/C(=C/C2=C(N(CCO)CCO)C(=C/c3sc4ccccc4[n+]3CC)/C2=O)Sc2ccccc21` as the compound, how does the GI50 [1] read?
A: 404 nM

Q: And the GI50 at 24 h [2]?
A: 5.34 µM

Q: And the GI50 [3]?
A: 257 nM

Q: What about the GI50 at 24 h [4] of the same compound?
A: 940 nM

Q: And the GI50 [5]?
A: 722 nM

Q: What about the GI50 at 24 h [6] of the same compound?
A: 4.49 µM

Q: What about the GI50 [7] of the same compound?
A: 88 nM

Q: What about the GI50 at 24 h [8] of the same compound?
A: > 10000 nM

Q: What about the inhibition at 24 h, 0.1 µM [9] of the same compound?
A: < 20%

Q: What about the inhibition at 24 h, 0.1 µM [10] of the same compound?
A: < 20%

Q: And the inhibition at 24 h, 0.1 µM [11]?
A: < 20%

Q: What about the inhibition at 24 h, 0.1 µM [12] of the same compound?
A: < 20%

Q: What about the GI50 at 24 h [13] of the same compound?
A: 621 nM

Q: What about the inhibition at 24 h, 0.1 µM [14] of the same compound?
A: < 20%

Q: And the GI50 at 24 h [15]?
A: 340 nM

Q: With `CCN1/C(=C/C2=C(N)C(=C/c3sc4ccccc4[n+]3CC)/C2=O)Sc2ccccc21` as the compound, how does the GI50 [1] read?
A: 8350 nM

Q: And the GI50 at 24 h [2]?
A: > 10 µM

Q: And the GI50 [3]?
A: 918 nM

Q: And the GI50 at 24 h [4]?
A: > 10000 nM

Q: What about the GI50 [5] of the same compound?
A: 665 nM

Q: What about the GI50 at 24 h [6] of the same compound?
A: 4.57 µM

Q: What about the GI50 [7] of the same compound?
A: 288 nM

Q: And the GI50 at 24 h [8]?
A: > 10000 nM

Q: And the inhibition at 24 h, 0.1 µM [9]?
A: < 20%

Q: What about the inhibition at 24 h, 0.1 µM [10] of the same compound?
A: < 20%

Q: What about the inhibition at 24 h, 0.1 µM [11] of the same compound?
A: < 20%

Q: And the inhibition at 24 h, 0.1 µM [12]?
A: < 20%

Q: And the GI50 at 24 h [13]?
A: > 10000 nM

Q: What about the inhibition at 24 h, 0.1 µM [14] of the same compound?
A: < 20%

Q: And the GI50 at 24 h [15]?
A: 4980 nM

Q: What does the source list for `CCN1/C(=C/C2=C(NCCO)C(=C/c3sc4ccccc4[n+]3CC)/C2=O)Sc2ccccc21`?
A: GI50 [1]: 440 nM; GI50 at 24 h [2]: 7.36 µM; GI50 [3]: 224 nM; GI50 at 24 h [4]: 8820 nM; GI50 [5]: 110 nM; GI50 at 24 h [6]: 7.83 µM; GI50 [7]: 97 nM; GI50 at 24 h [8]: > 10000 nM; inhibition at 24 h, 0.1 µM [9]: < 20%; inhibition at 24 h, 0.1 µM [10]: < 20%; inhibition at 24 h, 0.1 µM [11]: < 20%; inhibition at 24 h, 0.1 µM [12]: < 20%; GI50 at 24 h [13]: 3730 nM; inhibition at 24 h, 0.1 µM [14]: < 20%; GI50 at 24 h [15]: 385 nM

Q: Which results are given for `CCN1/C(=C/C2=C(NC)C(=C/c3sc4ccccc4[n+]3CC)/C2=O)Sc2ccccc21`?
A: GI50 [1]: 171 nM; GI50 at 24 h [2]: 0.576 µM; GI50 [3]: 54 nM; GI50 at 24 h [4]: 507 nM; GI50 [5]: 78 nM; GI50 at 24 h [6]: 7.08 µM; GI50 [7]: 71 nM; GI50 at 24 h [8]: 2220 nM; inhibition at 24 h, 0.1 µM [9]: < 20%; inhibition at 24 h, 0.1 µM [10]: < 20%; inhibition at 24 h, 0.1 µM [11]: < 20%; inhibition at 24 h, 0.1 µM [12]: < 20%; GI50 at 24 h [13]: 410 nM; inhibition at 24 h, 0.1 µM [14]: < 20%; GI50 at 24 h [15]: 126 nM
